Publication PMC2535826, “Cross-Species Differential Plasma Protein Binding of MBX-102/JNJ39659100: A Novel PPAR-γ Agonist” (PPAR Research, 2008)
Read-outs that look alike come from different tables or passages of the source.

Legend:
[1] = target: T1, mouse serum albumin (Mus musculus, UniProt P07724); assay: Albumin binding by surface plasmon resonance (SPR), MSA
T1 construct: purchased Sigma
Procedure: (§1) The characterization of the binding of MBX-102 acid against human, mouse, and rat albumin was performed using SPR-based biosensors (Biosensor Tools, Salt Lake City, Utah, USA). The assay methods used to assess the binding of MBX-102 acid to human, mouse, and rat albumins have been described previously. Briefly, each albumin was immobilized onto a CM5 sensor chip using standard amine coupling. Immobilization densities were between 10 000 and 13 000 RU. […] Each of the 16 different concentrations was tested in duplicate. […] All binding data were collected at 37°C. The binding response profile of MBX-102 acid over the three different albumin surfaces was evaluated and the binding constants for the high-affinity site were determined using a two-independent-site model. Conversion from KD to %bound was performed as previously described.

[2] = target: T2, human serum albumin (Homo sapiens, UniProt P02768); assay: Albumin binding by surface plasmon resonance (SPR), HSA; settings: for %Bound: converted from KD
T2 construct: purchased Sigma
T2 sequence (P02768 25-609): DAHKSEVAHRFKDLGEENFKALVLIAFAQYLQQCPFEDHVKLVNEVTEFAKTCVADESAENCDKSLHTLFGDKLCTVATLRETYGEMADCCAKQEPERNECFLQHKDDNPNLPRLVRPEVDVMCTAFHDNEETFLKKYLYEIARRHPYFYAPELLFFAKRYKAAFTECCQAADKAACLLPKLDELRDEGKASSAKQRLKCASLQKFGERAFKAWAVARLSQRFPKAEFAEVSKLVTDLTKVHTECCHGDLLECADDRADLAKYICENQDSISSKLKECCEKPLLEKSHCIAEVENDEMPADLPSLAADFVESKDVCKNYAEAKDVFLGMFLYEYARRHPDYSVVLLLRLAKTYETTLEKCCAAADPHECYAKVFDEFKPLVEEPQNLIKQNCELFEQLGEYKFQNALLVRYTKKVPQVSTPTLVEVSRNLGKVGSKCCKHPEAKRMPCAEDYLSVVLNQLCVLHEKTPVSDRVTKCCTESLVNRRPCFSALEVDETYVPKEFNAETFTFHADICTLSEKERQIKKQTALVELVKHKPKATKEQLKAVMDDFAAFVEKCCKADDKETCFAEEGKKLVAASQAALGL
Procedure: as §1

[3] = test system: mouse and human plasma; assay: Competitive equilibrium dialysis, mouse versus human plasma; assay type: in vitro ADME, CD-1 mouse; settings: 37°C, n = 5
Procedure: A comparison of the binding to plasma from different species was performed essentially by the method described below. Briefly, [^3H] MBX-102 acid spiked plasma samples were formulated as described above with the exception that pH was not adjusted to 7.4 and the final DMSO concentration was 0.6%. A 1 mL sample of spiked human plasma was applied to one side of the dialysis membrane and 1 mL of spiked animal plasma was applied to the other side. The samples were dialyzed by rotation at 20 rpm for up to 120 hours in a 37°C incubator. The ratio of free drug in plasma was calculated according to the equation: ratio of free drug (animal versus human) = (total cpm in human plasma)/(total cpm in animal plasma).

[4] = test system: human, mouse, or rat PPAR-γ; assay: PPAR-γ reporter gene assays comparing human, mouse and rat PPAR-γ (data not shown); assay type: cell-based
Procedure: For a pool sufficient to supply 100 wells, 6 million cells were diluted into medium for a total volume of 9 mL. The DNA-Lipofectamine 2000 mixture was prepared as per manufacturer’s instructions. For a pool sufficient to supply 100 wells, 5 μg Gal 4-Mouse PPAR-γ LBD, 5 μg pFR-Luciferase, and 500 ng Lac-z plasmids were mixed with 40 μL of Lipofectamine 2000 in Optimem medium in a total volume of 1 mL. The cell suspension was mixed with 1 mL of the DNA-Lipofectamine 2000 mixture. The mixture was plated into a 96-well plate and incubated for 4 hours at which time the transfection medium was removed and replaced with 100 μL DMEM, 10% (v/v) FBS and cultured overnight. The culture medium was then removed from the plates and replaced with 50 μL Pro293A medium. […] Measurement of luciferase and fluorescence activity was performed according to the manufacturer’s instructions. […] An 80 μL lysate aliquot was transferred to opaque white well plates and the luminescence measured. […] Each experimental condition was assessed in quadruplicate. The data were normalized for each well by dividing the luminescence measurement by the fluorescence measurement. Dose-response curves were generated and EC50 values were calculated using Prism Graphpad version 5.1.

[5] = target: T3, Gal 4-Mouse PPAR-γ LBD (Mus musculus, UniProt P37238); assay: PPAR-γ reporter gene (transactivation) assay in HEK-293T cells with serum or serum proteins; assay type: cell-based
T3 construct: 5 μg Gal 4-Mouse PPAR-γ LBD; expressed in transfected cells; host or cells: HEK-293T
T3 sequence (P37238 238-503 limits assumed): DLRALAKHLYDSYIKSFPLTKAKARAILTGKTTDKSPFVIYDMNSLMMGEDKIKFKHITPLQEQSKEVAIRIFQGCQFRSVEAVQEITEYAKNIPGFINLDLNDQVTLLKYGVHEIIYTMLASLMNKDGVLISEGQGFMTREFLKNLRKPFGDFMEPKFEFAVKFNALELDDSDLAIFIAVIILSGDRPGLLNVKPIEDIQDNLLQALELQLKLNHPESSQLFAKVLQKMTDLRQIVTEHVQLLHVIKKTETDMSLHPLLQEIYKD
Procedure: All cells were maintained at 37°C in a humidified atmosphere of 8% CO2 in air.
For a pool sufficient to supply 100 wells, 6 million cells were diluted into medium for a total volume of 9 mL. The DNA-Lipofectamine 2000 mixture was prepared as per manufacturer’s instructions. For a pool sufficient to supply 100 wells, 5 μg Gal 4-Mouse PPAR-γ LBD, 5 μg pFR-Luciferase, and 500 ng Lac-z plasmids were mixed with 40 μL of Lipofectamine 2000 in Optimem medium in a total volume of 1 mL. The cell suspension was mixed with 1 mL of the DNA-Lipofectamine 2000 mixture. The mixture was plated into a 96-well plate and incubated for 4 hours at which time the transfection medium was removed and replaced with 100 μL DMEM, 10% (v/v) FBS and cultured overnight. The culture medium was then removed from the plates and replaced with 50 μL Pro293A medium. Compounds and charcoal stripped/delipidated serum or serum albumin, or alpha-1 acid glycoprotein stock solutions were prepared at 2X final concentration in Pro293A medium and mixed together prior to addition of 50 μL to the transfected cells and incubated for an additional 24 hours. Measurement of luciferase and fluorescence activity was performed according to the manufacturer’s instructions. Briefly, after removal of media, cells were incubated for 10 minutes in 100 μL of Steady-Glo reagent. An 80 μL lysate aliquot was transferred to opaque white well plates and the luminescence measured. The 80 μL aliquot was then transferred back to the original plate. […] Each experimental condition was assessed in quadruplicate. The data were normalized for each well by dividing the luminescence measurement by the fluorescence measurement. Dose-response curves were generated and EC50 values were calculated using Prism Graphpad version 5.1.

[6] = Plasma protein binding by equilibrium dialysis, mouse plasma; assay type: in vitro ADME, CD-1 mice; settings: equilibrium dialysis vs PBS, 37°C, read-out: %Protein Binding ± SD (converted)
Procedure: Radiolabeled MBX-102 acid was prepared as a 1 mL ethanol solution at a concentration of 50 μM (1 mCi total). […] Final solvent concentrations were 1% of the total volume. Plasma was stored at −20°C. Prior to use, it was thawed and spun at approximately 2000 rpm for 5 minutes to remove any precipitated material. The pH was adjusted to pH 7.4 by careful addition of NaH2PO4. A 1 mL sample of spiked plasma was prepared by direct dilution of [^3H]-MBX-102 acid stock solution into plasma and then added to one side of an equilibrium dialysis chamber. The other chamber was filled with 1 mL of 0.01 M phosphate buffered saline (PBS). The dialysis apparatus was placed in a water bath at 37°C and rotated at 20 rpm. […] Once equilibrium was established, the contents of the cell chambers were removed and analyzed by liquid scintillation counting. The chambers were sampled in triplicate. […] The recovery percentage was found not to vary with MBX-102 acid concentration.

[7] = high-affinity site, two-independent-site model, 37°C, pH 7.4

T1 sequence (P07724 25-608): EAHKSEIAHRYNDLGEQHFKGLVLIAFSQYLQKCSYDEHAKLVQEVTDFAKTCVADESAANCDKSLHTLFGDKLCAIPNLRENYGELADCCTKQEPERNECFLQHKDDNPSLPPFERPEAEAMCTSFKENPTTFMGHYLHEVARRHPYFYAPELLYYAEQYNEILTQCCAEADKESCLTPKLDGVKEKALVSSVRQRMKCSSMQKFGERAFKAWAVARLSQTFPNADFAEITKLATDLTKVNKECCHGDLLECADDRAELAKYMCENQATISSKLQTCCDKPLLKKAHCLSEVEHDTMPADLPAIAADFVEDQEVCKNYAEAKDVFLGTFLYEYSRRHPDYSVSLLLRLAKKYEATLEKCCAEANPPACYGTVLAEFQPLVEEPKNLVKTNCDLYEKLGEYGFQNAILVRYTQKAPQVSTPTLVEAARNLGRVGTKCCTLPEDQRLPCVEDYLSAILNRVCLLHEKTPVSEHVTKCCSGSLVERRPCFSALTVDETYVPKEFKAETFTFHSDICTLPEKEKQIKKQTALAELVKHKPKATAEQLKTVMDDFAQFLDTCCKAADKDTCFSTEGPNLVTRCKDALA

O=C(O)[C@H](Oc1cccc(C(F)(F)F)c1)c1ccc(Cl)cc1 (stereo in doubt) [MBX-102 acid]
%Bound ([1]; converted from KD): 99.2% | Kd [1, 7]: 5.5 µM | %Bound [2]: > 98% | %Bound ([2]; listed as MBX-102): 99.1% | Kd [2, 7]: 5.8 µM | Free Fraction Ratio Mouse:Human ([3]; MBX-102 acid 100 μM): 10.5 ± 5.5 | Free Fraction Ratio Mouse:Human ([3]; MBX-102 acid 300 μM): 5.9 ± 3.6 | Free Fraction Ratio Mouse:Human ([3]; MBX-102 acid 700 μM): 3.7 ± 1.9 | Free Fraction Ratio Mouse:Human ([3]; MBX-102 acid 1000 μM): 2.6 ± 1.1 | Free Fraction Ratio Mouse:Human ([3]; MBX-102 acid 1300 μM): 2.3 ± 0.7 | intrinsic differences in ability to activate human, mouse, or rat PPAR-γ [4]: no intrinsic differences | EC50 ([5]; 0% human serum albumin (Figure 3), 2–6 experiments, mean ± SD, read-out: EC50 PPAR-γ activation): 14.4 ± 2.5 µM | EC50 ([5]; 0% serum (Figure 2), 3 experiments, mean ± SD, read-out: EC50 PPAR-γ activation): 15.1 ± 1.9 µM | EC50 ([5]; 0.08% human serum albumin (Figure 3), 2–6 experiments, mean ± SD, read-out: EC50 PPAR-γ activation): 44 ± 5.6 µM | EC50 ([5]; 2% (v/v) human serum (Figure 2), 3 experiments, mean ± SD, read-out: EC50 PPAR-γ activation): 43.5 ± 6.9 µM | fold change in mean EC50 relative to no serum ([5]; 2% human serum): 3 fold | EC50 ([5]; 10% (v/v) human serum (Figure 2), 3 experiments, mean ± SD, read-out: EC50 PPAR-γ activation): 288 ± 39.6 µM | fold change in mean EC50 relative to no serum ([5]; 10% human serum): 19 fold | EC50 ([5]; 10% human serum (Table 4, Figure 4), 3 experiments, read-out: Mean EC50 ± SD, Human): 260 ± 16.9 µM | EC50 ([5]; 10% mouse serum (Table 4, Figure 4), 3 experiments, read-out: Mean EC50 ± SD, Mouse): 170 µM | EC50 ([5]; 10% rat serum (Table 4, Figure 4), 3 experiments, read-out: Mean EC50 ± SD, Rat): 196 ± 18 µM | EC50 ([5]; 20% (v/v) human serum (Figure 2), 3 experiments, mean ± SD, read-out: EC50 PPAR-γ activation): 442 ± 29.8 µM | fold change in mean EC50 relative to no serum ([5]; 20% human serum): 29 fold | fraction unbound at 400 µM ([6]; CD-1, pH 7.4, MBX-102 acid 400 μM): 0.002 | fraction unbound at 600 µM ([6]; CD-1, pH 7.4, MBX-102 acid 600 μM): 0.003 | fraction unbound at 1000 µM ([6]; CD-1, pH 7.4, MBX-102 acid 1000 μM): 0.005 | fraction unbound at 1500 µM ([6]; CD-1, pH 7.4, MBX-102 acid 1500 μM): 0.002
